According to patent publication US11910795B2, “Natural indole auxin and aminopolycarboxylic acid herbicidal compositions” (Suncor Energy Inc., priority 2013, dated 2024):

Columns and labels:
buckhorn plantains = assay: Field testing control of buckhorn plantain in North Carolina (Example 4); assay type: in vivo; settings: Table 5 (FIG. 5)
Method: The formulations were applied at a rate of 200 gpa onto sections of a plot containing buckhorn plantains and other weeds in North Carolina, U.S.A. A second application of the formulations was made 21 days following the initial application. The sections were visually inspected and rated over the course of 56 days following the initial application. Performance of the formulations was evaluated based on the percentage control of the buckhorn plantains observed in each section.

Dandelions [1] = assay: Field testing control of dandelions in Ontario (Example 5); assay type: in vivo; settings: Table 6 (FIG. 6), 200 gpa, rated 10 and 30 days following application
Method: Formulations containing IBA, DTPA, and combinations of IBA with various chelating agents including salts of DTPA, EDTA, ethylenediamine-N,N′-disuccinic acid (EDDS), N-(hydroxyethyl)-ethylenediaminetriacetic acid (HEDTA), and lignosulfonic acid were prepared as detailed in Table 6 the solutions were prepared in water at the concentrations indicated ([…]). The formulations were applied at a rate of 200 gpa onto sections of a plot containing dandelions and other weeds in Ontario, Canada. Injuries to the grass and dandelions were visually inspected and rated 10 days and 30 days following application of the formulations. Performance of the formulations was evaluated based on the percentage of control of the dandelions observed. Injuries to the grass were also rated using a 0-10 scale: 0=no injury; 10=plant dead, severe injury.

Kentucky Bluegrass = assay: Injury to Kentucky Bluegrass in greenhouse study (Example 2, IBA/EDTA); assay type: in vivo; settings: tested alone, Table 3
Method: (§1) Dandelions and Kentucky Bluegrass were seeded and grown in the greenhouse for at least 10 weeks before treatment. Ready-to-use formulations containing indole-3-butyric acid (IBA) and ethylenediaminetetraacetic acid (EDTA), including ethylenediaminetetraacetic acid tetrasodium salt (EDTA Na4), ethylenediaminetetraacetic acid disodium salt (EDTA Na2), and ethylenediaminetetraacetic acid calcium sodium salt, and combinations of IBA and a chelator were prepared as detailed in Table 3 with the remainder of the formulation being comprised of water. IBA was initially dissolved in KHCO3 when the acid could not be dissolved directly and then diluted in water to the concentration indicated (this is indicated below in Table 3 by the label IBA-K). The prepared formulations were applied to sections of the dandelion and Kentucky Bluegrass plots at a rate of 200 gallons per acre (gpa).
(§2) Injuries to the grass and weeds were visually inspected and rated for 4 weeks using a 0-10 scale: 0=no injury; 10=plant dead. For turfgrass, ratings greater than 3 indicated unacceptable phytotoxicity. The numbers indicate the maximum effect observed on the various plants. When regrowth of the plants following application was observed, it is noted in the table following the overall injury score.

Dandelions [2] = assay: Control of dandelions in greenhouse study (Example 2, IBA/EDTA); assay type: in vivo; settings: for control on weeds: Table 3 (FIG. 3), greenhouse, 200 gpa, result in words; for effect on weeds at concentrations greater than 5% by weight / herbicidal effect at concentrations lower than 5% by weight: tested alone; for effect on weeds at concentrations greater than 5% by weight: Table 3; for herbicidal effect at concentrations lower than 5% by weight: Table 3 (IBA: Tr 2-4)
Method: as §1, §2

[3] = Solubility of IBA in aqueous solutions (Example 9); assay type: physicochemical
Description: The solubility of IBA and its salts was investigated in various aqueous solutions under different pH conditions. The effect of chelators such as EDTA and HEDTA on the solubility of IBA was also investigated. The data provided further evidence of the relatively limited water solubility of the IBA acid (<0.1%).

[4] = Dissolving IBA when preparing formulations (Example 2); assay type: physicochemical; settings: Treatment 10, 12 and 14 of Table 3
Method: as §1

| dissolution of a 1% solution under alkaline conditions ([3]; 1% solution of IBA) | pH at which a 1% solution was stable ([3]; 1% solution of IBA) | water solubility ([3]; IBA acid in water) | SMILES | time after which the weeds began to exhibit regrowth (buckhorn plantains) | control on the buckhorn plantains (buckhorn plantains; 200 gpa, second application after 21 days, rated over 56 days) | control of the dandelions (Dandelions [1]) | injury to the grass at concentrations greater than 5% by weight (Kentucky Bluegrass) | control on weeds (Dandelions [2]) | effect on weeds at concentrations greater than 5% by weight (Dandelions [2]) | herbicidal effect at concentrations lower than 5% by weight (Dandelions [2]) | dissolution of IBA in EDTA-Na4 [4] | regrowth of the weeds (Dandelions [2]; Table 3, after application) |
| --- | --- | --- | --- | --- | --- | --- | --- | --- | --- | --- | --- | --- |
|  |  |  | O=C(O)CN(CCN(CC(=O)O)CC(=O)O)CCN(CC(=O)O)CC(=O)O [DTPA, diethylenetriaminepentaacetic acid] | > 25 days | moderate control | moderate control |  |  |  |  |  |  |
| dissolves well | > 6 | < 0.1% | O=C(O)CCCc1c[nH]c2ccccc12 [IBA, indole-3-butyric acid] |  |  | moderate control | severe injury | low to moderate control | exhibited control of the weeds | limited herbicidal effect | can be dissolved in EDTA-Na4 directly without addition of KHCO3 |  |
|  |  |  | O=C(O)CN(CCN(CC(=O)O)CC(=O)O)CC(=O)O [EDTA, ethylenediaminetetraacetic acid] |  |  |  |  | low to moderate control | burns the leaves of weeds | limited herbicidal effect |  | grow back after 14 or 28 DAT |
